From patent US20020172935A1, “Methods of screening for compounds that modulate blood vessel formation from circulating endothelial cell precursors” (priority 2000, published 2002)

Test system: murine allantois
Assay: Allantois explant culture: de novo vascular development, immunolabeling and confocal analysis
Type: cell-based, mouse
Protocol: Allantoides of 7.5dpc embryos were excised, washed in EPBS (4° C.) and then pipetted into Nunc 4 chambered culture slides (Fisher Scientific Co., Suwanee, Ga.) containing 0.4 ml of DMEM, 10% Fetal Bovine Serum, and 1% Penicillin Streptomycin. Explants were cultured at 37° C. in a 5% CO2 incubator for 12-20 hours and then fixed and permeabilized as described above. The explants were blocked in 3% BSA/PBSA 12-18 hrs, exposed to PECAM antibodies (1.5 hours, 26° C.), washed 3×40 minutes in PBSA, incubated in appropriate secondary antibodies (1.5 hours, 26° C.), washed in PBSA 3×30 minutes, and mounted as described above.
Embryos were analyzed using a Bio-Rad MRC 1024 Laser Scanning Confocal Microscope (Bio-Rad Microscopy Division, Cambridge, Mass.). Optical sectioning along the dorsoventral axis (Z-axis) was performed and the images collapsed into a single focal plane using manufacturer's software. Differential Interference Contrast (DIC) images were generated using a research grade Leitz™ photomicroscope equipped with a Photometrics™ (Tucson, Ariz.) Quantix CCD camera. Images were processed using NIH Image 1.62 software (NIH, Bethesda, Md.) and Adobe Photoshop 5.0 (Adobe Systems, Inc., San Jose, Calif.). […]

VEGF
vascular pattern (PECAM immunolabeling) (7.0 dpc allantois cultured 24 hours with VEGF 2 μg/ml (FIG. 3c)): overall sinusoidal vascular pattern | vascular phenotype (allantois cultures, recombinant VEGF 2 μg/ml, 24 hr): hyperfused vascular phenotype
